In patent US20240317744A1, “Bicyclic Ureas As Kinase Inhibitors” (Incyte Corporation, priority 2023, published 2024):

Key:
[1] = target: T1, catalytic domain (JH1, amino acids 826-1132) of human JAK2 (Homo sapiens, UniProt O60674); assay: JAK2 LanthaScreen JH1 Binding Assay; details: JAK2 JH1 1.5 nM, 50 nM tracer, 2 hours at 25° C.; read-out: JH1 BIND
T1 construct: catalytic domain (JH1, amino acids 826-1132) of human JAK2; FLAG (N); biotin (biotinylated); purchased Carna Biosciences 08-445-20N; host or cells: baculovirus expression system
T1 sequence (O60674 826-1132): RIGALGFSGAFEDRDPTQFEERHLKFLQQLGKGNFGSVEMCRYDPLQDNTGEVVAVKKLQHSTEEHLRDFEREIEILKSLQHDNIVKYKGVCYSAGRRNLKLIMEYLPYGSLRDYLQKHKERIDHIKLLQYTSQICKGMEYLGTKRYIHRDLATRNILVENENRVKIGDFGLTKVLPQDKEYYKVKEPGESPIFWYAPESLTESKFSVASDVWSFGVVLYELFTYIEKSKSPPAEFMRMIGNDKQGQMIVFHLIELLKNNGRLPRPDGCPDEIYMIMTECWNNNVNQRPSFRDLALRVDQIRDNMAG
Description: Example A. JAK2 LanthaScreen JH1 Binding Assay
JAK2 JH1 binding assay utilizes catalytic domain (JH1, amino acids 826-1132) of human JAK2 expressed as N-terminal FLAG-tagged, biotinylated protein in a baculovirus expression system (Carna Biosciences, Product #08-445-20N). The assay was conducted in black 384-well polystyrene plates in a final reaction volume of 20 μL. JAK2 JH1 (1.5 nM) was incubated with compounds (100 nL serially diluted in DMSO) in the presence of 50 nM fluorescent JAK2-JH1 tracer and 0.5 nM Streptavidin-Tb cryptate (Cisbio Part #610SATLB) in assay buffer (50 mM Tris, pH=7.5, 10 mM MgCl2, 0.01% Brij-35, 0.1% BSA, 1 mM EGTA, 5% Glycerol and 5 mM DTT). Non-specific binding was accessed in the presence of 2 mM ATP. After incubation for 2 hours at 25° C., LanthaScreen signals were read on a PHERAstar FS plate reader (BMG LABTECH). Data was analyzed with IDBS XLfit and GraphPad Prism 5.0 software using a four parameter dose response curve to determine IC50 for each compound.

[2] = target: T2, pseudo-kinase domain (JH2, amino-acids 536-812) of human Wild Type JAK2 (Homo sapiens, UniProt O60674, F794H/W659A/W777A); assay: JAK2 LanthaScreen JH2-WT Binding Assay; details: JAK2 JH2-WT 0.145 nM, 50 nM tracer, 1 hour at 25° C.; read-out: JH2 BIND WT
T2 construct: pseudo-kinase domain (JH2, amino-acids 536-812 with 3 surface mutations W659A, W777A, F794H); His (C); purchased BPS Bioscience 79463; host or cells: baculovirus expression system
T2 sequence (O60674 536-812 W659A/W777A/F794H): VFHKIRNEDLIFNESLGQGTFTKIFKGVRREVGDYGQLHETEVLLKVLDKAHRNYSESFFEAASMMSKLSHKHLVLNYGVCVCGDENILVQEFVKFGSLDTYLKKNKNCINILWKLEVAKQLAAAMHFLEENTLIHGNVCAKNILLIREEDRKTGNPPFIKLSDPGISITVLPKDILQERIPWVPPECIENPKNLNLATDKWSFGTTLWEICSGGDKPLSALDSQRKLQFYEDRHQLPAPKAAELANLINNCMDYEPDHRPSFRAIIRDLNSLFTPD
Description: Example B. JAK2 LanthaScreen JH2-WT Binding Assay
JAK2 JH2-WT binding assay utilizes pseudo-kinase domain (JH2, amino-acids 536-812 with 3 surface mutations W659A, W777A, F794H) of human Wild Type JAK2 expressed as C-terminal His-Avi-tagged, biotinylated protein in a baculovirus expression system (BPS Bioscience, Catalog #79463). The assay was conducted in black 384-well polystyrene plates in a final reaction volume of 20 μL. JAK2 JH2-WT (0.145 nM) was incubated with compounds (100 nL serially diluted in DMSO) in the presence of 50 nM Fluorescent JAK2-JH2 Tracer (MedChem Express Catalog #HY-102055) and 0.25 nM Streptavidin-Tb cryptate (Cisbio Part #610SATLB) in assay buffer (50 mM Tris, pH=7.5, 10 mM MgCl2, 0.01% Brij-35, 0.1% BSA, 1 mM EGTA, 5% Glycerol and 5 mM DTT). Non-specific binding was accessed in the presence of 2 mM ATP. After incubation for 1 hour at 25° C., LanthaScreen signals were read on a PHERAstar FS plate reader (BMG LABTECH). Data was analyzed with IDBS XLfit and GraphPad Prism 5.0 software using a four parameter dose response curve to determine IC50 for each compound.

[3] = target: T3, pseudo-kinase domain (JH2, amino-acids 536-812) of human V617F mutant JAK2 (Homo sapiens, UniProt O60674, F794H/V617F/W659A/W777A); assay: JAK2 LanthaScreen JH2-V617F Binding Assay; details: JAK2 JH2-V617F 0.26 nM, 50 nM tracer, 1 hour at 25° C.; read-out: JH2 BIND V617F
T3 construct: pseudo-kinase domain (JH2, amino-acids 536-812 with 3 surface mutations W659A, W777A, F794H); His (C); purchased BPS Bioscience 79498; host or cells: baculovirus expression system
T3 sequence (O60674 536-812 V617F/W659A/W777A/F794H): as the sequence (O60674 536-812 W659A/W777A/F794H) above, with V82F counted along it
Summary of the method: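 Serially diluted compounds are mixed with 0.26 nM protein, 50 nM fluorescent JAK2-JH2 tracer and 0.25 nM terbium-labelled streptavidin, then incubated 1 h at 25° C. LanthaScreen signal is read, and IC50 is fitted.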

[4] = target: catalytic domain (JH1, amino acids 808-1132) of human JAK2 (Homo sapiens, UniProt O60674); assay: JAK2 HTRF Enzyme Activity Assay; type: biochemical; details: ATP 30 µM, 60 minutes at 25° C.; read-out: V617F ENZ 30 UM
Sequence of catalytic domain (JH1, amino acids 808-1132) of human JAK2 (O60674 808-1132 limits assumed): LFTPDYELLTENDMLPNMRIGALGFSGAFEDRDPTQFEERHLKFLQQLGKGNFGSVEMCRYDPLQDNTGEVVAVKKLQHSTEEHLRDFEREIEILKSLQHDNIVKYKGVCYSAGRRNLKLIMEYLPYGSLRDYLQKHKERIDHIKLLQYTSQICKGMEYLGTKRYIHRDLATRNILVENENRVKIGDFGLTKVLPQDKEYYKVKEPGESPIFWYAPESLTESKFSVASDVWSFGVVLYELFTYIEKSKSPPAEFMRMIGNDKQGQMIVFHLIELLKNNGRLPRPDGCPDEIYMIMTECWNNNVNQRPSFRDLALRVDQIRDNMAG

Row | Compound | IC50 [1] | IC50 [2] | IC50 [3] | IC50 [4]
1 | [2H]C([2H])([2H])n1c(=O)n([C@@H]2CC[C@@H](NC(=O)OC)C2)c2cc(Nc3cc(C(=O)N4CC5CC4CO5)c4cccc(C(F)(F)F)c4n3)ncc21 (stereo partly drawn) [Example 12, Methyl ((1R,3R)-3-(6-((4-(2-oxa-5-azabicyclo[2.2.1]heptane-5-carbonyl)-8-(trifluoromethyl)quinolin-2-yl)amino)-3-(methyl-d3)-2-oxo-2,3-dihydro-1H-imidazo[4,5-c]pyridin-1-yl)cyclopentyl)carbamate] | > 1000 nM | ≤ 10 nM | ≤ 10 nM | > 1000 nM
2 | [2H]C([2H])([2H])n1c(=O)n([C@@H]2CC[C@@H](NC(=O)OC)C2)c2cc(Nc3cc(C(=O)N4CCOC5CC54)c4cccc(C(F)(F)F)c4n3)ncc21 (stereo partly drawn) [Example 13, Methyl ((1R,3R)-3-(6-((4-(2-oxa-5-azabicyclo[4.1.0]heptane-5-carbonyl)-8-(trifluoromethyl)quinolin-2-yl)amino)-3-(methyl-d3)-2-oxo-2,3-dihydro-1H-imidazo[4,5-c]pyridin-1-yl)cyclopentyl)carbamate] | 500 to 1000 nM | ≤ 10 nM | ≤ 10 nM | 500 to 1000 nM
3 | COC(=O)Nc1cc(Nc2cc3c(cn2)n(C)c(=O)n3[C@@H]2CC[C@@H](NC(=O)OC)C2)cc(-c2cn(C)nn2)c1 [Example 14, Methyl (3-((1-((1R,3R)-3-((methoxycarbonyl)amino)cyclopentyl)-3-methyl-2-oxo-2,3-dihydro-1H-imidazo[4,5-c]pyridin-6-yl)amino)-5-(1-methyl-1H-1,2,3-triazol-4-yl)phenyl)carbamate] | > 1000 nM | ≤ 10 nM | 10 to 100 nM | > 1000 nM
4 | COC(=O)Nc1cc(Nc2cc3c(cn2)n(C)c(=O)n3[C@@H]2CC[C@@H](NC(=O)OC)C2)cc(C2CCN(C)CC2)c1 [Example 15, Methyl (3-((1-((1R,3R)-3-((methoxycarbonyl)amino)cyclopentyl)-3-methyl-2-oxo-2,3-dihydro-1H-imidazo[4,5-c]pyridin-6-yl)amino)-5-(1-methylpiperidin-4-yl)phenyl)carbamate] | > 1000 nM | ≤ 10 nM | 10 to 100 nM | > 1000 nM
5 | [2H]C([2H])([2H])n1c(=O)n([C@@H]2CC[C@@H](NC(=O)OC)C2)c2cc(Nc3cc(C(=O)N4CCCC(F)(F)C4)c4cccc(C(F)(F)F)c4n3)ncc21 [Example 16, Methyl ((1R,3R)-3-(6-((4-(3,3-difluoropiperidine-1-carbonyl)-8-(trifluoromethyl)quinolin-2-yl)amino)-3-(methyl-d3)-2-oxo-2,3-dihydro-1H-imidazo[4,5-c]pyridin-1-yl)cyclopentyl)carbamate] | > 1000 nM | ≤ 10 nM | ≤ 10 nM | > 1000 nM
6 | COC(=O)N[C@@H]1CC[C@@H](n2c(=O)n(C)c3cnc(Nc4cc(NC(=O)[C@H]5CC5(F)F)cc(C5CCOCC5)c4)cc32)C1 [Example 17, Methyl ((1R,3R)-3-(6-((3-((R)-2,2-difluorocyclopropane-1-carboxamido)-5-(tetrahydro-2H-pyran-4-yl)phenyl)amino)-3-methyl-2-oxo-2,3-dihydro-1H-imidazo[4,5-c]pyridin-1-yl)cyclopentyl)carbamate] | > 1000 nM | ≤ 10 nM | ≤ 10 nM | > 1000 nM
7 | [2H]C([2H])([2H])n1c(=O)n([C@@H]2CC[C@@H](NC(=O)OC)C2)c2cc(Nc3ccc4cc(NC5CCC(F)(F)C5)cc(C(F)(F)F)c4n3)ncc21 (stereo partly drawn) [Example 18, Methyl ((1R,3R)-3-(6-((6-((3,3-difluorocyclopentyl)amino)-8-(trifluoromethyl)quinolin-2-yl)amino)-3-(methyl-d3)-2-oxo-2,3-dihydro-1H-imidazo[4,5-c]pyridin-1-yl)cyclopentyl)carbamate] | > 1000 nM | ≤ 10 nM | ≤ 10 nM | > 1000 nM
8 | COC(=O)N[C@@H]1CC[C@@H](n2c(=O)n(C)c3cnc(Nc4cc(NC(=O)C5CCC5)cc(C5CCOCC5)c4)cc32)C1 [Example 19, Methyl ((1R,3R)-3-(6-((3-(cyclobutanecarboxamido)-5-(tetrahydro-2H-pyran-4-yl)phenyl)amino)-3-methyl-2-oxo-2,3-dihydro-1H-imidazo[4,5-c]pyridin-1-yl)cyclopentyl)carbamate] | > 1000 nM | ≤ 10 nM | ≤ 10 nM | > 1000 nM
9 | [2H]C([2H])([2H])n1c(=O)n([C@@H]2CC[C@@H](NC(=O)OC)C2)c2cc(Nc3ccc4cc(-c5cnn(C)c5)cc(C(F)(F)F)c4n3)ncc21 [Example 20, Methyl ((1R,3R)-3-(3-(methyl-d3)-6-((6-(1-methyl-1H-pyrazol-4-yl)-8-(trifluoromethyl)quinolin-2-yl)amino)-2-oxo-2,3-dihydro-1H-imidazo[4,5-c]pyridin-1-yl)cyclopentyl)carbamate] | > 1000 nM | ≤ 10 nM | ≤ 10 nM | > 1000 nM
10 | COC(=O)Nc1cc(Nc2cc3c(cn2)n(C)c(=O)n3[C@@H]2CC[C@@H](NC(=O)OC)C2)cc(C2CCCOC2)c1 (stereo partly drawn) [Example 21, Methyl (3-((1-((1R,3R)-3-((methoxycarbonyl)amino)cyclopentyl)-3-methyl-2-oxo-2,3-dihydro-1H-imidazo[4,5-c]pyridin-6-yl)amino)-5-(tetrahydro-2H-pyran-3-yl)phenyl)carbamate] | > 1000 nM | ≤ 10 nM | ≤ 10 nM | > 1000 nM
11 | COC(=O)N[C@@H]1CC[C@@H](n2c(=O)n(C)c3cnc(Nc4cccc(OC5CCC(C#N)CC5)n4)cc32)C1 (stereo partly drawn) [Example 22, Methyl ((1R,3R)-3-(6-((6-((4-cyanocyclohexyl)oxy)pyridin-2-yl)amino)-3-methyl-2-oxo-2,3-dihydro-1H-imidazo[4,5-c]pyridin-1-yl)cyclopentyl)carbamate] | > 1000 nM | 10 to 100 nM | 10 to 100 nM | > 1000 nM
12 | COC(=O)N[C@@H]1CC[C@@H](n2c(=O)n(C)c3cnc(Nc4cccc(Oc5ccc6ncccc6c5)n4)cc32)C1 [Example 23, Methyl ((1R,3R)-3-(3-methyl-2-oxo-6-((6-(quinolin-6-yloxy)pyridin-2-yl)amino)-2,3-dihydro-1H-imidazo[4,5-c]pyridin-1-yl)cyclopentyl)carbamate] | > 1000 nM | 10 to 100 nM | 10 to 100 nM | > 1000 nM
13 | COC(=O)Nc1cc(Nc2cc3c(cn2)n(C)c(=O)n3[C@H]2C[C@H](NC(=O)C3CC3)C2)cc(-c2cnn(C)c2)c1 [Example 24, Methyl (3-((1-((1r,3r)-3-(cyclopropanecarboxamido)cyclobutyl)-3-methyl-2-oxo-2,3-dihydro-1H-imidazo[4,5-c]pyridin-6-yl)amino)-5-(1-methyl-1H-pyrazol-4-yl)phenyl)carbamate] | > 1000 nM | 10 to 100 nM | 10 to 100 nM | > 1000 nM
